Measured values as given in PubChem BioAssay (NCI).
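Here, GI50 denotes the concentration required for 50% inhibition of growth. TGI denotes the concentration required for complete inhibition of growth.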

Key:
Assay in all cases: growth of human tumour cells (NCI), 384-well format
SK-MEL-28 melanoma = system: SK-MEL-28 melanoma
K-562 leukemia = system: K-562 leukemia
MCF7 breast = system: MCF7 breast
LOX IMVI melanoma = system: LOX IMVI melanoma
M14 melanoma = system: M14 melanoma
UACC-257 melanoma = system: UACC-257 melanoma
IGROV1 ovarian = system: IGROV1 ovarian
SNB-75 CNS = system: SNB-75 CNS
TK-10 renal = system: TK-10 renal
OVCAR-4 ovarian = system: OVCAR-4 ovarian
ACHN renal = system: ACHN renal
CCRF-CEM leukemia = system: CCRF-CEM leukemia
EKVX NSCLC = system: EKVX NSCLC
SK-MEL-5 melanoma = system: SK-MEL-5 melanoma
HL-60(TB) leukemia = system: HL-60(TB) leukemia
NCI-H522 lung = system: NCI-H522 lung
A498 renal = system: A498 renal
HCC-2998 colon = system: HCC-2998 colon
DU-145 prostate = system: DU-145 prostate
786-0 renal = system: 786-0 renal
MDA-MB-468 breast = system: MDA-MB-468 breast
HOP-92 NSCLC = system: HOP-92 NSCLC
MDA-MB-435 melanoma = system: MDA-MB-435 melanoma
SN12C renal = system: SN12C renal
PC-3 prostate = system: PC-3 prostate
NCI-H226 lung = system: NCI-H226 lung
NCI-H23 lung = system: NCI-H23 lung
MALME-3M melanoma = system: MALME-3M melanoma
OVCAR-8 ovarian = system: OVCAR-8 ovarian
KM12 colon = system: KM12 colon
UACC-62 melanoma = system: UACC-62 melanoma
OVCAR-5 ovarian = system: OVCAR-5 ovarian
NCI-H322M lung = system: NCI-H322M lung
HOP-62 NSCLC = system: HOP-62 NSCLC
HT29 colon = system: HT29 colon
OVCAR-3 ovarian = system: OVCAR-3 ovarian
SW-620 colon = system: SW-620 colon
U251 glioblastoma = system: U251 glioblastoma
RPMI-8226 leukemia = system: RPMI-8226 leukemia
SF-268 CNS = system: SF-268 CNS
HS 578T breast = system: HS 578T breast
MDA-MB-231 breast = system: MDA-MB-231 breast
NCI/ADR-RES ovarian = system: NCI/ADR-RES ovarian
RXF 393 renal = system: RXF 393 renal
BT-549 breast = system: BT-549 breast
HCT-15 colon = system: HCT-15 colon
SK-OV-3 ovarian = system: SK-OV-3 ovarian
UO-31 renal = system: UO-31 renal
T-47D breast = system: T-47D breast
NCI-H460 NSCLC = system: NCI-H460 NSCLC
SNB-19 CNS = system: SNB-19 CNS
A549 NSCLC = system: A549 NSCLC
MOLT-4 leukemia = system: MOLT-4 leukemia
SF-295 CNS = system: SF-295 CNS
CAKI-1 renal = system: CAKI-1 renal
HCT-116 colon = system: HCT-116 colon
COLO 205 colon = system: COLO 205 colon
SF-539 CNS = system: SF-539 CNS

With O=C1[C@H](Cc2ccc(O)cc2)N2C(=O)CCN(C(=O)NCc3ccccc3)[C@H]2CN1Cc1cccc2ccccc12 the GI50 (SK-MEL-28 melanoma) was 1.98 µM, the TGI (SK-MEL-28 melanoma) was 11.4 µM and the GI50 (K-562 leukemia) was 0.828 µM. It also gave a TGI (K-562 leukemia) of 14.1 µM, a GI50 (MCF7 breast) of 5.44 µM and a TGI (MCF7 breast) of 20 µM. For the same molecule, the GI50 (LOX IMVI melanoma) was 1.15 µM, the TGI (LOX IMVI melanoma) was 5.36 µM and the GI50 (M14 melanoma) was 2.78 µM. The TGI (M14 melanoma) was 12.4 µM, the GI50 (UACC-257 melanoma) was 3.45 µM and the TGI (UACC-257 melanoma) was 14 µM. For the same molecule, the GI50 (IGROV1 ovarian) was 0.353 µM, the TGI (IGROV1 ovarian) was 2.49 µM and the GI50 (SNB-75 CNS) was 0.421 µM. It also gave a TGI (SNB-75 CNS) of 2.23 µM, a GI50 (TK-10 renal) of 6.57 µM and a TGI (TK-10 renal) of 24.1 µM. For the same molecule, the GI50 (OVCAR-4 ovarian) was 2.92 µM, the TGI (OVCAR-4 ovarian) was 17.2 µM and the GI50 (ACHN renal) was 10.7 µM. The TGI (ACHN renal) was 37.7 µM, the GI50 (CCRF-CEM leukemia) was 1.33 µM and the TGI (CCRF-CEM leukemia) was 7.73 µM. The GI50 (EKVX NSCLC) was 6.96 µM, the TGI (EKVX NSCLC) was 30.7 µM and the GI50 (SK-MEL-5 melanoma) was 1.33 µM. For the same molecule, the TGI (SK-MEL-5 melanoma) was 4.11 µM, the GI50 (HL-60(TB) leukemia) was 3.98 µM and the TGI (HL-60(TB) leukemia) was 15 µM. For the same molecule, the GI50 (NCI-H522 lung) was 0.518 µM, the TGI (NCI-H522 lung) was 12.6 µM and the GI50 (A498 renal) was 2.9 µM. For the same molecule, the TGI (A498 renal) was 9.62 µM, the GI50 (HCC-2998 colon) was 2.1 µM and the TGI (HCC-2998 colon) was 15.3 µM. For the same molecule, the GI50 (DU-145 prostate) was 4.25 µM, the TGI (DU-145 prostate) was 17.1 µM and the GI50 ([…]-0 renal) was 2.76 µM. The TGI (786-0 renal) was 16.9 µM, the GI50 (MDA-MB-468 breast) was 3.46 µM and the TGI (MDA-MB-468 breast) was 15.6 µM. The GI50 (HOP-92 NSCLC) was 0.386 µM, the TGI (HOP-92 NSCLC) was 1.88 µM and the GI50 (MDA-MB-435 melanoma) was 4.85 µM. It also gave a TGI (MDA-MB-435 melanoma) of 17.7 µM, a GI50 (SN12C renal) of 2.78 µM and a TGI (SN12C renal) of 16.8 µM. It also gave a GI50 (PC-3 prostate) of 1.74 µM, a TGI (PC-3 prostate) of 9.23 µM and a GI50 (NCI-H226 lung) of 2.95 µM. For the same molecule, the TGI (NCI-H226 lung) was 11.1 µM, the GI50 (NCI-H23 lung) was 4.97 µM and the TGI (NCI-H23 lung) was 17.7 µM. The GI50 (MALME-3M melanoma) was 1.24 µM, the TGI (MALME-3M melanoma) was 5.89 µM and the GI50 (OVCAR-8 ovarian) was 1.35 µM. For the same molecule, the TGI (OVCAR-8 ovarian) was 11.9 µM, the GI50 (KM12 colon) was 2.82 µM and the TGI (KM12 colon) was 13.6 µM. For the same molecule, the GI50 (UACC-62 melanoma) was 1.35 µM, the TGI (UACC-62 melanoma) was 8.06 µM and the GI50 (OVCAR-5 ovarian) was 1.44 µM. It also gave a TGI (OVCAR-5 ovarian) of 9.66 µM, a GI50 (NCI-H322M lung) of 3.72 µM and a TGI (NCI-H322M lung) of 19.1 µM. It also gave a GI50 (HOP-62 NSCLC) of 2.99 µM, a TGI (HOP-62 NSCLC) of 11.9 µM and a GI50 (HT29 colon) of 3.17 µM. The TGI (HT29 colon) was 15.8 µM, the GI50 (OVCAR-3 ovarian) was 0.632 µM and the TGI (OVCAR-3 ovarian) was 6.89 µM. The GI50 (SW-620 colon) was 7.63 µM, the TGI (SW-620 colon) was > 100 µM and the GI50 (U251 glioblastoma) was 0.578 µM. It also gave a TGI (U251 glioblastoma) of 11.2 µM, a GI50 (RPMI-8226 leukemia) of 2.03 µM and a TGI (RPMI-8226 leukemia) of 12.3 µM. For the same molecule, the GI50 (SF-268 CNS) was 0.287 µM, the TGI (SF-268 CNS) was 0.792 µM and the GI50 (HS 578T breast) was 0.182 µM. The TGI (HS 578T breast) was 0.77 µM, the GI50 (MDA-MB-231 breast) was 0.556 µM and the TGI (MDA-MB-231 breast) was 12 µM. The GI50 (NCI/ADR-RES ovarian) was > 100 µM, the TGI (NCI/ADR-RES ovarian) was > 100 µM and the GI50 (RXF 393 renal) was 3.22 µM. The TGI (RXF 393 renal) was 14.6 µM, the GI50 (BT-549 breast) was 1.28 µM and the TGI (BT-549 breast) was 11.6 µM. It also gave a GI50 (HCT-15 colon) of 18.9 µM, a TGI (HCT-15 colon) of 82.9 µM and a GI50 (SK-OV-3 ovarian) of 1.66 µM. It also gave a TGI (SK-OV-3 ovarian) of 10.3 µM, a GI50 (UO-31 renal) of 16.1 µM and a TGI (UO-31 renal) of 33.3 µM. It also gave a GI50 (T-47D breast) of 0.441 µM, a TGI (T-47D breast) of 3.68 µM and a GI50 (NCI-H460 NSCLC) of 0.858 µM. The TGI (NCI-H460 NSCLC) was 5.2 µM, the GI50 (SNB-19 CNS) was 0.678 µM and the TGI (SNB-19 CNS) was 21.8 µM. For the same molecule, the GI50 (A549 NSCLC) was 1.83 µM, the TGI (A549 NSCLC) was 13.8 µM and the GI50 (MOLT-4 leukemia) was 0.319 µM. It also gave a TGI (MOLT-4 leukemia) of 1.19 µM, a GI50 (SF-295 CNS) of 3.79 µM and a TGI (SF-295 CNS) of 13.7 µM. It also gave a GI50 (CAKI-1 renal) of 2.15 µM, a TGI (CAKI-1 renal) of 5.94 µM and a GI50 (HCT-116 colon) of 0.738 µM. The TGI (HCT-116 colon) was 11.8 µM, the GI50 (COLO 205 colon) was 0.662 µM and the TGI (COLO 205 colon) was 10.2 µM. It also gave a GI50 (SF-539 CNS) of 0.564 µM and a TGI (SF-539 CNS) of 9.79 µM.
